Experimental data from patent US9518976B2, “Methods for identifying or assaying for agents that increase beta-cell proliferation, insulin secretion, insulin sensitivity, glucose tolerance and decrease fat mass” (The Trustees of Columbia University in The City of New York, priority 2006, dated 2016).
Ends that are not written are not given here.

Columns and labels:
wild type osteoblasts = assay: Isoproterenol on wild type osteoblasts: mRNA levels by quantitative PCR; type: cell-based, mouse
Method: (§1) All gene expression analyses were performed using real time PCR. DNAse I-treated total RNA was converted to cDNA with the SuperScript III kit (Invitrogen). Real-time PCR were performed using the Taq SYBR Green Supermix with ROX (Biorad) on an MX3000 instrument (Stratagene); beta-actin amplification was used as an internal reference for each sample. All primers were from SuperArray.
It was discovered that sympathetic nervous system (SNS) activity positively regulates Esp expression in osteoblasts. […] Thus, decreasing sympathetic activity should lead to a decrease in Esp expression and thereby to an increase in the undercarboxylated, active form of osteocalcin.

[1] = osteoporotic patients, cited from earlier work
gamma carboxylase = molecular target: T1, gamma carboxylase (Homo sapiens, UniProt P38435); settings: thiol-specific inhibitors; cited from earlier work
T1 sequence (P38435 1-758): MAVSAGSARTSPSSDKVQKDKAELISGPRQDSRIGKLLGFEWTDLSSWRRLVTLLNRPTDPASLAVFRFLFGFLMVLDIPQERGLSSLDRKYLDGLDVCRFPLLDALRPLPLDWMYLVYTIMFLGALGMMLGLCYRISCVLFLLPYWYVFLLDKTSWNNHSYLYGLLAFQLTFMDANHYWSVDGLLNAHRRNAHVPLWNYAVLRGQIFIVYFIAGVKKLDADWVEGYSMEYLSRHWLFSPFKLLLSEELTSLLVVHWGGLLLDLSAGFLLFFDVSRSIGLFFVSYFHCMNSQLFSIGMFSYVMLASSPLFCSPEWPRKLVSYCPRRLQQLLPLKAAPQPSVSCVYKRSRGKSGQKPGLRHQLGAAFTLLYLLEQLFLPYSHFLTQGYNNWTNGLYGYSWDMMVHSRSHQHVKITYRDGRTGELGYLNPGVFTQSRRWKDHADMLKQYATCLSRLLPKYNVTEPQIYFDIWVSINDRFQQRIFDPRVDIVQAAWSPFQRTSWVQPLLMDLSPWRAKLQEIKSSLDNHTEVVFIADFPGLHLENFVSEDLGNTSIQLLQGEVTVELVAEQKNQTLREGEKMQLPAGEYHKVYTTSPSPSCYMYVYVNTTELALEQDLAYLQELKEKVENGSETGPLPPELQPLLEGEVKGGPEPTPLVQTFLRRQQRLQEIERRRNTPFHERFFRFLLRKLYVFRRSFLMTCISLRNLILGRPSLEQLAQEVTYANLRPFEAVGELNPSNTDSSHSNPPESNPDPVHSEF

beta-cells = assay: Streptozotocin (STZ) injection in WT and Esp−/− mice: survival and blood glucose; type: in vivo, mouse; settings: eight days after injection
Excerpt: FIG. 3. Esp−/− Mice Are Protected from Obesity and Glucose Intolerance. A-F) Food intake per day (A), body weight curve (B), fat pad mass (C), serum triglyceride levels (D), GTT (E), and ITT (F) in 4-month-old WT and Esp−/− mice 3 months after GTG or vehicle injection. (G-I) Body weight curve (G), GTT (H), and ITT (I) in 3 month-old WT and Esp−/− mice fed a high fat diet for 6 weeks. (J and K) Serum insulin levels (J) and pancreatic insulin content (K) in 1-month-old WT and Esp−/− mice 8 days after STZ or vehicle injection. (L and M) Survival of mice (L) and change of blood glucose levels (M) in 1-month-old WT and Esp−/− mice during the 8 days following STZ injection. (N) Urinary glucose assays in 1-month-old WT and Esp−/− mice 8 days after STZ injection. In (A)-(F), (J), and (K): a, WT versus Esp−/−; b, WT+GTG (or STZ) versus WT+vehicle; c, WT+GTG (or STZ) versus Esp−/−+GTG (or STZ); d, Esp−/−+GTG (or STZ) versus Esp−/−+vehicle. In (G)-(I) and (M), *p<0.05 WT versus Esp−/−. In (A), (C), (D), (J), and (K), Student's t test, p<0.05 for a-d; in (B), (E)-(I), (L), and (M), ANOVA followed by post hoc analysis when number of groups >2, p % 0.001 for a-d.
For glucose tolerance test (GTT), glucose (2 g/kg body weight (BW)) was injected intraperitoneally (IP) after an overnight fast and blood glucose was monitored using blood glucose strips and the Accu-Check glucometer (Roche) at indicated times. For glucose stimulated insulin secretion test (GSIS), glucose (3 g/kg BW) was injected IP after an overnight fast; sera were collected from tails and insulin measured as described (Mauvais-Jarvis et al., 2000). For insulin tolerance test (ITT), mice were fasted for six hours, injected IP with insulin (0.2 U/kg BW) and blood glucose levels were measured at indicated times as described (Mauvais-Jarvis et al., 2002). ITT data are presented as percentage of initial blood glucose concentration. Gold thioglucose (600 mg/kg BW, USP) was injected IP after an overnight fast, mice were sacrificed 3 months later for analysis. Streptozotocin ([…] single injection, Sigma) was injected IP and blood glucose measured as described above every 2 days thereafter. After 8 days, pancreases were isolated to measure insulin content as previously described (Mauvais-Jarvis et al., 2000). Food intake was measured using metabolic cages as the daily change of food weight. Energy expenditure was measured using metabolic cages connected to a calorimeter (Columbus Instrument). Heat values (Kcal/Hr) were recorded over 2 days and reported to each mouse BW.
Whether the increase in insulin sensitivity could protect Esp−/− mice from pancreatic beta-cell failure was determined. […] Unlike STZ-treated WT mice, glucose could not be detected in urine of STZ-injected Esp−/− mice (FIG. 3N).

Wild type adipocytes = assay: Adiponectin expression in wt adipocytes treated with osteocalcin (real time PCR); type: cell-based, mouse
Excerpt: FIG. 7. Esp−/− Mice Are a Model of Increased Osteocalcin Bioactivity. (A-G) Comparison between 6-week-old WT, Esp−/, Ocn+/−, and Esp−/−; Ocn+/− mice. (A) Blood glucose levels. (B) Serum insulin levels. (C) Serum adiponectin levels. (D) GTT. (E) ITT. (F) GSIS test. (G) Quantification of the number of Ki67-immunoreactive cells in pancreatic islets. […] (J) Expression of Adiponectin in WT adipocytes cocultured with osteoblasts treated with warfarin or vehicle. (K) Expression of Adiponectin in WT adipocytes cultured in presence of vehicle or of 1 ng/ml of commercially available carboxylated osteocalcin (Immunotopics) or bacterially produced uncarboxylated osteocalcin. (L) Expression of Insulin and Cyclin D1 in WT islets cultured in presence of 0.3 ng/ml of bacterially produced uncarboxylated osteocalcin or vehicle. (M) Metabolic parameters and total serum osteocalcin levels in control and obese patients. (N-O) Quantification of carboxylated osteocalcin (HA-bound osteocalcin) in control and obese patients. In (A)-(C) and (G)-(L): *p<0.05 versus WT (Student's t test); in (D)-(F), °p<0.05 versus WT and *p % 0.001 versus WT (ANOVA followed by post hoc analysis).
FIG. 15. […] Wt adipocytes were treated for 4 hours with recombinant full-length osteocalcin (1-46) or a truncated form (1-36) or vehicle. Adiponectin expression was then quantified by real time PCR.
Primary adipocytes were isolated from epididymal fat pads by collagenase digestion. Briefly, minced adipose tissue was digested by 1 mg/ml collagenase P in KRP Buffer (20 mM HEPES, 120 mM NaCl, 6 mM KCl, 1.2 mM MgSO4, 1 mM CaCl2, 0.6 mM Na2HPO4, 0.4 mM NaH2PO4, 2.5 mM D-glucose, 2% BSA, pH 7.4) for 1 h at 37° C. The isolated cells were washed twice with KRP Buffer before being cultured in αMEM/1% FBS at 37° C. in 5% CO2.
as §1
Experiments were performed to test whether truncated osteocalcin was as effective as full-length uncarboxylated osteocalcin in stimulating adiponectin secretion from mouse adipocytes in vitro. Wild type adipocytes were treated for 4 hours with recombinant full-length osteocalcin (1-46) or a truncated form (1-36) (having a deletion of the […] ten amino acids from the C-terminal end) or vehicle. Adiponectin expression was then quantified by real time PCR. […]

[2] = read-out: Kd to hydroxyapatite; cited from earlier work

CC(C)NCC(O)c1ccc(O)c(O)c1 (centres unmarked) [isoproterenol]
expression of gamma-carboxylase (ggcx) (wild type osteoblasts): did not increase
expression of osteocalcin (wild type osteoblasts): did not increase
expression of vkor (wild type osteoblasts): did not increase
increase of Esp expression (wild type osteoblasts; at 8 hours): remains steady
increase of Esp expression (wild type osteoblasts; by 4 hours): about 80%

Vitamin K
percentage mean decrease in undercarboxylated osteocalcin ([1]; four weeks of treatment, vs controls without Vitamin K): 85%

CCN1C(=O)C=CC1=O [N-ethylmaleimide (NEM), N-ethylmaleimide]
inhibition of gamma carboxylase (gamma carboxylase): inhibited

O=C([O-])c1cc[c]([Hg][OH])cc1 [p-hydroxymurcuribenzoate (pHMB), p-hydroxymurcuribenzoate]
inhibition of gamma carboxylase (gamma carboxylase): inhibited

CN(N=O)C(=O)N[C@H]1C(O)O[C@H](CO)[C@@H](O)[C@@H]1O (mixture of isomers) [STZ, streptozotocin]
blood glucose level of surviving mice (beta-cells; STZ-treated Esp−/− mice): ≤ 250 mg/dL
mice died (beta-cells; STZ-treated Esp−/− mice): one
mice died (beta-cells; STZ-treated WT mice): 3 of the 7
serum glucose levels of surviving mice (beta-cells; STZ-treated WT mice): above 500 mg/dl

1-36 fragment of uncarboxylated osteocalcin: Recombinant truncated mouse osteocalcin (1-36), ten amino acids deleted from the C-terminal end (YLGASVPSPDPLEPTREQCELNPACDELSDQYGLKT; not fully specified; ends and bridges not checked; UniProt P86546 50-85, looked up, fragment)
Adiponectin expression increase (Wild type adipocytes; wild type adipocytes treated for 4 hours, real time PCR, vs vehicle): ~1.8 fold
potency in inducing adiponectin expression in vitro (Wild type adipocytes; wt adipocytes, 4 hours (FIG. 15 legend)): as potent as native osteocalcin

carboxylated osteocalcin: commercially available carboxylated osteocalcin (Immunotopics) (YLYQWLGAPVPYPDPLEPRREVCELNPDCDELADHIGFQEAYRRFYGPV; ends and bridges not checked; also: carboxylated (Gla) residues, sites not given here; UniProt P02818 52-100, looked up) [reference compound]
induction of adiponectin expression (Wild type adipocytes; WT adipocytes, 1 ng/ml (FIG. 7K)): failed to induce

Vitamin D
effect on undercarboxylated osteocalcin ([1]; alone or together with Vitamin K): no significant effect

B1: Osteocalcin: normal (Gla-containing) osteocalcin, small vitamin K-dependent calcium binding protein; literature data (protein, listed as Homo sapiens)
chain: MRALTLLALLALAALCIAGQAGAKPSGAESSKGAAFVSKQEGSEVVKRPRRYLYQWLGAPVPYPDPLEPRREVCELNPDCDELADHIGFQEAYRRFYGPV
Kd [2]: ~100 nM
